# “And” between values parts separate entries of the source, which are not always exact repeats. Equal values may be shown once.
# System: LG0567-F671-PDC multi-cell spheroid viability
# Assay: Anticancer human tumor LG0567-F671-PDC patient-derived lung adenocarcinoma cell line growth inhibition [IpAb]
# Conditions: for viability, T/C: stronger effect = lower value
# In short: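 Combinations with ipatasertib or abemaciclib were tested on tumour spheroids holding HUVEC (25%) and MSC (15%) alongside 60% malignant cells. Top concentration was at or near clinical Cmax (10 microM if undefined), descending in half-log steps.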
# [1] = curve of first compound, second compound 0.1 µM
# [2] = curve of first compound, second compound 0.316 µM
# [3] = curve of first compound, second compound 1 µM
# [4] = second compound 0.1 µM, first compound 0.0316 µM
# [5] = second compound 0.1 µM, first compound 0.1 µM
# [6] = second compound 0.1 µM, first compound 0.316 µM
# [7] = second compound 0.1 µM, first compound 1 µM
# [8] = second compound 0.1 µM, first compound 3.16 µM
# [9] = second compound 0.1 µM, first compound 10 µM
# [10] = second compound 0.316 µM, first compound 0.0316 µM
# [11] = second compound 0.316 µM, first compound 0.1 µM
# [12] = second compound 0.316 µM, first compound 0.316 µM
# [13] = second compound 0.316 µM, first compound 1 µM
# [14] = second compound 0.316 µM, first compound 3.16 µM
# [15] = second compound 0.316 µM, first compound 10 µM
# [16] = second compound 1 µM, first compound 0.0316 µM
# [17] = second compound 1 µM, first compound 0.1 µM
# [18] = second compound 1 µM, first compound 0.316 µM
# [19] = second compound 1 µM, first compound 1 µM
# [20] = second compound 1 µM, first compound 3.16 µM
# [21] = second compound 1 µM, first compound 10 µM
# [22] = curve of first compound, second compound 3.16 µM
# [23] = curve of first compound, second compound 10 µM
# [24] = second compound 3.16 µM, first compound 0.0316 µM
# [25] = second compound 3.16 µM, first compound 0.1 µM
# [26] = second compound 3.16 µM, first compound 0.316 µM
# [27] = second compound 3.16 µM, first compound 1 µM
# [28] = second compound 3.16 µM, first compound 3.16 µM
# [29] = second compound 3.16 µM, first compound 10 µM
# [30] = second compound 10 µM, first compound 0.0316 µM
# [31] = second compound 10 µM, first compound 0.1 µM
# [32] = second compound 10 µM, first compound 0.316 µM
# [33] = second compound 10 µM, first compound 1 µM
# [34] = second compound 10 µM, first compound 3.16 µM
# [35] = second compound 10 µM, first compound 10 µM
# 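Note: viability read after 7 days of drug exposure.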
# 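Throughout, for viability, T/C: 100% = DMSO vehicle control luminescence.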
Compound,IC50 [1],IC50 [2],IC50 [3],"viability, T/C [4]","viability, T/C [5]","viability, T/C [6]","viability, T/C [7]","viability, T/C [8]","viability, T/C [9]","viability, T/C [10]","viability, T/C [11]","viability, T/C [12]","viability, T/C [13]","viability, T/C [14]","viability, T/C [15]","viability, T/C [16]","viability, T/C [17]","viability, T/C [18]","viability, T/C [19]","viability, T/C [20]",also measured
Cn1nccc1Nc1nccc(-c2ccn(C(CO)c3ccc(Cl)c(F)c3)c(=O)c2)n1 (centres undefined) + CCN1CCN(Cc2ccc(Nc3ncc(F)c(-c4cc(F)c5nc(C)n(C(C)C)c5c4)n3)nc2)CC1,87.3 nM,< 31.6 nM,< 31.6 nM,57.1%,48.3%,40.5%,28.1%,31.2%,24.9%,49.7%,46.4%,37.1%,34%,24.6%,28.5%,42.8%,50%,40.3%,29.3%,25.5%,"IC50 (curve of first compound, second compound 0.01 µM): 121 nM; IC50 (curve of first compound, second compound 0.0316 µM): 131 nM; viability, T/C (second compound 0.01 µM, first compound 0.0316 µM): 77.9%; viability, T/C (second compound 0.01 µM, first compound 0.1 µM): 47.2%; viability, T/C (second compound 0.01 µM, first compound 0.316 µM): 46.7%; viability, T/C (second compound 0.01 µM, first compound 1 µM): 31.2%; viability, T/C (second compound 0.01 µM, first compound 3.16 µM): 26.9%; viability, T/C (second compound 0.01 µM, first compound 10 µM): 29.6%; viability, T/C (second compound 0.0316 µM, first compound 0.0316 µM): 60.9%; viability, T/C (second compound 0.0316 µM, first compound 0.1 µM): 48.9%; viability, T/C (second compound 0.0316 µM, first compound 0.316 µM): 45.9%; viability, T/C (second compound 0.0316 µM, first compound 1 µM): 28%; viability, T/C (second compound 0.0316 µM, first compound 3.16 µM): 26.2%; viability, T/C (second compound 0.0316 µM, first compound 10 µM): 24.9%; viability, T/C [21]: 23.1%"
Cc1nc(NC(=O)N2CCCC2C(N)=O)sc1-c1ccnc(C(C)(C)C(F)(F)F)c1 (centres undefined) + CC(C)NCC(C(=O)N1CCN(c2ncnc3c2C(C)CC3O)CC1)c1ccc(Cl)cc1,5190 nM,924 nM,257 nM,85.3%,86.2%,71%,42.8%,72%,39.7%,63.8%,72%,44.2%,56.8%,40.2%,35.9%,66.1%,68.2%,46.2%,34.2%,35.6%,"IC50 [22]: 341 nM; IC50 [23]: < 31.6 nM; viability, T/C [21]: 29.8%; viability, T/C [24]: 56%; viability, T/C [25]: 50.9%; viability, T/C [26]: 48.7%; viability, T/C [27]: 44.5%; viability, T/C [28]: 41.1%; viability, T/C [29]: 21.4%; viability, T/C [30]: 50.5%; viability, T/C [31]: 53.1%; viability, T/C [32]: 38.6%; viability, T/C [33]: 46.2%; viability, T/C [34]: 37.8%; viability, T/C [35]: 25.8%"
CC(=O)c1c(C)c2cnc(Nc3ccc(N4CCNCC4)cn3)nc2n(C2CCCC2)c1=O,,,,,,,,,,,,,,,,,,,,,"viability, T/C (compound 0.000949 µM): 95.7% and 102%; viability, T/C (compound 0.003 µM): 78.4% and 87.8%; viability, T/C (compound 0.00949 µM): 107% and 91.7%; viability, T/C (compound 0.03 µM): 68.7% and 76.1%; viability, T/C (compound 0.0949 µM): 91.7% and 72.5%; viability, T/C (compound 0.3 µM): 86.8% and 82.4%; IC50 (curve of compound): > 300 nM"
COc1c(OCCCN2CCOCC2)ccc2c3n(c(=NC(=O)c4cnc(N)nc4)nc12)CCN3,,,,,,,,,,,,,,,,,,,,,"viability, T/C (compound 0.00316 µM): 102%; viability, T/C (compound 0.01 µM): 75.8% and 88.7%; viability, T/C (compound 0.0316 µM): 59.6% and 64.5%; viability, T/C (compound 0.1 µM): 48.8% and 42.4%; viability, T/C (compound 0.316 µM): 35.9% and 36.7%; viability, T/C (compound 1 µM): 33.4% and 31.1%; IC50 (curve of compound): 75 nM and 69.6 nM"
C=CCn1c(=O)c2cnc(Nc3ccc(N4CCN(C)CC4)cc3)nc2n1-c1cccc(C(C)(C)O)n1 + CC(C)NCC(C(=O)N1CCN(c2ncnc3c2C(C)CC3O)CC1)c1ccc(Cl)cc1,479 nM,803 nM,626 nM,80.7%,78.5%,52.1%,44.6%,34.6%,33.4%,75%,73.1%,53.3%,50.5%,36.2%,23.6%,69.6%,84.6%,65.2%,37.8%,37.6%,"IC50 [22]: 1050 nM; IC50 [23]: 646 nM; viability, T/C [21]: 20.2%; viability, T/C [24]: 79.1%; viability, T/C [25]: 83%; viability, T/C [26]: 59.1%; viability, T/C [27]: 50.8%; viability, T/C [28]: 36.9%; viability, T/C [29]: 19.5%; viability, T/C [30]: 72.8%; viability, T/C [31]: 76%; viability, T/C [32]: 51.7%; viability, T/C [33]: 49.1%; viability, T/C [34]: 31.9%; viability, T/C [35]: 26.8%"

# — PubChem BioAssay AID2060332 (Molecular Pharmacology Branch, DTP, NCI, 2025)
